Measured values reported in patent US8044022B2, “Hyaluronic acid binding peptides enhance host defense against pathogenic bacteria” (priority 2005, dated 2011).

Legend:
S. aureus PS80 = experiment: Modified NCCLS macrodilution broth method, antimicrobial activity; assay type: cell-based, Staphylococcus aureus; settings: 1, 10 and 100 ug/mL; quantitative cultures at 4, 8, 24 h; vs controls without HABPs
Procedure: The antimicrobial activity of HABP35 and HABP53 was determined using a modified National Committee for Clinical Laboratory Standards (NCCLS) macrodilution broth method. S. aureus PS80 was grown overnight on tryptic soy agar plates containing 5% sheep blood. Colonies were suspended in sterile saline and dilutions made to achieve a final concentration of 5×10^5 CFU/ml in each tube containing 5 ml of Mueller-Hinton and BP35 or 53. The HABPs were tested at 1, 10, and 100 ug/mL concentrations. Once inoculated, the tubes were incubated in ambient air at 37° C. and bacterial concentration determined at 4, 8, and 24 hours. Modification of testing parameters included the 10 fold dilution of the HABPs and the determination of bacterial counts at 4, 8 and 24 hours rather than the visual determination of growth or inhibition.

contact hypersensitivity = settings: mice; cited from earlier work
S. aureus strain PS80 = experiment: Mouse model of S. aureus surgical wound infection; assay type: in vivo, C57BL6 mice
Procedure: Bacterial strains. S. aureus strain PS80 (serotype 8) was obtained from the American Type Culture collection (#27700) and is a potent inducer of intraabdominal abscess formation. S. aureus COL is a methicillin resistant strain that produces a serotype 5 capsule. Staphylococci were cultivated for 24 h at 37° C. on Columbia agar (Difco Laboratories, Detroit, Mich.) supplemented with 2% NaCl.
Mouse model of S. aureus wound infection. Mice (C57BL6, male, 6-8 wk old) were obtained from Jackson Laboratories (Bar Harbor, Me.). Groups of mice (N=4/group/experiment) were anesthetized with 100 mg/kg ketamine and 10 mg/kg xylazine, their right thighs were shaved, and the surgical area was disinfected with iodine and 70% ethanol. An incision was made in the skin to expose the thigh muscle, and a 1-cm incision was made with a scalpel into the thigh muscle to the depth of the bone. The muscle was then closed with one 4-0 silk suture, and 10 μl of a S. aureus suspension ranging in dose from 10^2 to 10^4 CFU was introduced into the incision under the suture. The skin was closed with four additional Prolene sutures. The mice were euthanized at 3 days post-surgery. The wounded muscle tissue was excised, weighed (˜0.08 g), and homogenized in 1 ml of tryptic soy broth. Serial dilutions of the homogenates were plated in duplicate and results were expressed as CFU/g tissue. Peptides were administered to animals in two ways. For most experiments, HABPs were solubilized in PBS and administered with a pipet into the wound in a 10 μl volume following challenge with bacteria. A 100 μg dose was used for most experiments. For therapeutic studies, peptide was administered via a 1 ml tuberculin syringe fitted with a 25 gauge needle in a 0.25 ml volume injected into the thigh muscle containing the wound distal from the incision site.
Gross pathology and histologic analysis of host response. […] Histological examination of these wounds confirmed these findings. Muscle tissue was harvested from mice at designated intervals post-surgery, fixed in 10% buffered formalin, and mounted in paraffin; 5 to 6-μm sections were cut and stained with hematoxylin and eosin for microscopic examination. […] The cellular infiltrate was primarily comprised of PMNs and fibrin.
Statistical analyses. All animal experiments were performed at least two times and the data pooled. Comparison of S. aureus CFU/g tissue was made by the Welch modification of the unpaired Student t test (InStat, GraphPad Software, San Diego, Calif.).

leukocyte adhesion to HA = settings: cited from earlier work
Staphylococcus aureus = experiment: Bacterial translocation through polarized keratinocyte cultures (Transwell); assay type: cell-based; settings: 100 μg/ml; vs PBS or SCRM
GAS [1] = experiment: Opsonophagocytic assay with human neutrophils; assay type: cell-based, Group A Streptococcus; settings: 50 μg/ml, 2 hours incubation with human neutrophils, 10% absorbed human serum
Procedure: Encapsulated GAS are resistant to killing by neutrophils in opsonophagocytic assays in the absence of antibodies that bind the bacterial surface. HABPs binding to the bacterial surface may facilitate neutrophil cytotoxicity. Opsonophagocytic assays were performed wherein GAS were incubated with 50 μg/ml of SCRM, HABP01 or HABP35 and mixed with human neutrophils in medium containing 10% absorbed human serum. Aliquots (25 μl) for quantitative culture were withdrawn immediately after mixing neutrophil with GAS and after 2 hr incubation at 37° C. The log increase or decrease in CFU's was calculated. After 2 hours of incubation, there was about a 1.5 log increase in CFU's for GAS treated with PBS or SCRM.

P. multocida = experiment: Bacterial translocation through polarized keratinocyte cultures (Transwell); assay type: cell-based, Pasteurella multocida; settings: 100 μg/ml; vs PBS or SCRM
Procedure: (§1) Cell cultures: For the preparation of in vitro keratinocyte cultures, human primary OKP7 cells were derived from the oropharynx. Keratinocytes were seeded at 5×10^5 cells per well onto polycarbonate Transwell membrane supports (12 well plates, 3.0 μm pore size; Costar) or tissue culture treated plastic ware and cultured for 5-10 days at 37° C. with 5% humidified CO2 in cSFM medium with daily medium changes. Once confluent, the calcium concentration of the cSFM was increased to 1.2 mM and cells were cultured for 2 more days, before the integrity of the monolayer was assessed by measuring permeability to sodium fluorescein, and in some experiments, by measuring transepithelial electrical resistance.
(§2) Infection procedures: Keratinocyte layer cultures in Transwell inserts were inoculated in the upper chamber with GAS, S. equi, S. uberis, and P. multocida at a multiplicity of infection (MOI) of 1 bacterium per keratinocyte in the presence or absence of HABP01 or SCRM. Infected cultures were incubated at 37° C. with 5% CO2 for the desired time. In translocation experiments, Transwell inserts containing the keratinocytes were moved to new wells containing fresh medium every 2 hours to prevent overgrowth of bacteria that had translocated through the keratinocytes layer to the lower chamber. Bacterial translocation was quantified by culturing medium from the lower chamber at 2-hour intervals. […]

Acapsular GAS = experiment: Fluorometry binding of FITC-conjugated peptide to capsule-deficient GAS; design: species or system Group A Streptococcus
Procedure: (§3) Bacterial strains: GAS strain 950771 is a moderately encapsulated M3 clinical isolate from a child with post-varicella necrotizing fasciitis and sepsis, and an isogenic capsule deficient mutant, 188, derived from 950771. GAS were grown in Todd-Hewitt broth (Difco) to mid-exponential phase OD650 of 0.15 at 37° C. for all experiments. Commercially available trypticase-soy agar medium supplemented with 5% vol/vol sheep blood (BAP)(PML Microbiologicals, British Columbia, Canada) were used for all plate cultures. S. equi s(ATCC 53185) and P. multocida (ATCC 11039) were purchased from ATCC and cultured as recommended. Briefly, S. equi was cultured in Todd-Hewitt broth and S. uberis and P. multocida were cultured in Brain heart infusion (Difco) to OD 650 of 0.15 at 37° C. Quantitative cultures were performed in parallel with each experiment to verify the multiplicity of infection (MOI) of the inoculum.
(§4) Binding of HABP to HA and HA-encapsulated bacteria: To assess whether HABP are able to associate specifically with the GAS capsule, bacteria were cultured to mid-log phase, for maximal HA capsule expression, and incubated with either 10 μg/ml of FITC-conjugated HABP01 or SCRM, with purified HA at 1 mg/ml, as a positive control, or an isogenic mutant strain of GAS deficient in HA capsule, as a negative control. A GAS-specific antibody was used to control for the number of bacteria per well.

[2] = Fluorometry binding of FITC-conjugated peptide to purified HA in well; design: species or system rooster
Procedure: Lyophilized synthetic peptides were resuspended in PBS pH7.4 prior to use in either in vitro or in vivo experiments. Fluorescein conjugation of HABP01 and SCRM was performed using 5,6 carboxyfluorescein, succinimidyl ester (5,6 FAM) (Molecular Probes, Portland, Oreg.) as per manufacturer's instructions and separated on a Sephadex G-25 column (Amersham, Piscataway, N.J.). Purified, high molecular weight rooster comb HA (Sigma-Aldrich, St Louis, Mo.) was used as a positive control for BP binding.
as §4

[3] = tested on: GAS internalization by keratinocytes; experiment: Bacterial internalization by keratinocyte monolayers; assay type: cell-based, Group A Streptococcus / human keratinocytes; settings: 100 μg/ml, 4 hours
Procedure: Effect of HABP on bacterial internalization by keratinocytes. Encapsulated GAS are poorly internalized by keratinocytes. Yet in the presence of HABPs, intracellular encapsulated GAS are observed by microscopy. To quantify this internalization, keratinocyte monolayers were infected with HA-encapsulated bacteria in the presence of 100 μg/ml of either HABP01 or SCRM for 4 hours. Penicillin and gentamicin were added at 3 hours to kill extracellular bacteria and cells were harvested. Bacteria treated with HABP01 were internalized approximately 40-fold more efficiently than SCRM-treated or untreated samples, and at similar levels to those obtained with acapsular GAS. Internalization of acapsular GAS was unaffected by either peptide.

[4] = tested on: Wild Type GAS (HA encapsulated); experiment: Fluorometry binding of FITC-conjugated peptide to encapsulated GAS; design: species or system Group A Streptococcus
Procedure: as §3, §4

S. equi = experiment: Bacterial translocation through polarized keratinocyte cultures (Transwell); assay type: cell-based, Streptococcus equi; settings: 100 μg/ml; vs PBS or SCRM
Procedure: as §1, §2

GAS [5] = experiment: as above; assay type: cell-based, Group A Streptococcus; settings: 100 μg/ml, treatment of keratinocytes or bacteria; vs PBS or SCRM
Procedure: as §1
Infection procedures: Keratinocyte layer cultures in Transwell inserts were inoculated in the upper chamber with GAS, S. equi, S. uberis, and P. multocida at a multiplicity of infection (MOI) of 1 bacterium per keratinocyte in the presence or absence of HABP01 or SCRM. Infected cultures were incubated at 37° C. with 5% CO2 for the desired time. In translocation experiments, Transwell inserts containing the keratinocytes were moved to new wells containing fresh medium every 2 hours to prevent overgrowth of bacteria that had translocated through the keratinocytes layer to the lower chamber. Bacterial translocation was quantified by culturing medium from the lower chamber at 2-hour intervals.
Bacterial translocation studies were performed to assess the impact of HABP01 on bacterial paracellular translocation through polarized keratinocyte cultures.
Incubation of GAS in the presence of HABP33, HABP35 and HABP42, also delayed GAS translocation. At two hours after the addition of GAS to the keratinocytes, approximately 530 CFU of GAS were detected in the lower level in cultures treated with PBS or SCRM peptide.

[6] = fluorometry, HABP35 also confocal microscopy, data not shown

| Sequence | growth of S. aureus (S. aureus PS80) | contact hypersensitivity responses (contact hypersensitivity) | bacterial burden at the wound site compared with PBS (S. aureus strain PS80; 100 μg into wound at time of challenge with 10^2 CFU, 3 days later) | log reduction in bacterial numbers vs PBS (S. aureus strain PS80; challenge with 10^3 CFU, 3 days) [log] | leukocyte adhesion to HA (leukocyte adhesion to HA) | reduction in translocation of Staphylococcus aureus (Staphylococcus aureus) [%] | log increase in CFU's (GAS [1]) | reduction in translocation of P. multocida (P. multocida) [%] | binding to unencapsulated GAS (in words) (Acapsular GAS; [6]) | Relative binding (Acapsular GAS; substrate in well: Acapsular GAS, 10 μg/ml FITC-conjugated peptide) | binding to purified HA (in words) ([2]; fluorometry) | Relative binding ([2]; substrate in well: HA (1 mg/ml), 10 μg/ml FITC-conjugated peptide) | internalization of HA-encapsulated bacteria by keratinocytes relative to SCRM-treated or untreated samples [3] | binding to encapsulated GAS (in words) [4, 6] | Relative binding ([4]; substrate in well: Wild Type GAS, 10 μg/ml FITC-conjugated peptide) | reduction in translocation of S. equi (S. equi) [%] | reduction in the translocation of GAS across an intact keratinocyte culture (GAS [5]) |
| --- | --- | --- | --- | --- | --- | --- | --- | --- | --- | --- | --- | --- | --- | --- | --- | --- | --- |
| GAHWQFNALTVRGGGS [HABP52] | not inhibited | inhibits contact hypersensitivity responses | significant decrease | ~3 | inhibit leukocyte adhesion to HA | – | – | – | – | – | – | – | – | – | – | – | – |
| STMMSRSHKTRSHHV [HABP01] | – | – | – | – | – | 73 | over 1 log | 98 | not to unencapsulated GAS | 1940 ± 70 relative fluorescent units | bound specifically | 9640 ± 360 relative fluorescent units | approximately 40 fold | bound specifically | 11840 ± 230 relative fluorescent units | 98 | 75-85% |
